For this test, the system named is AadA37. Briefly: coupled continuous spectrophotometric assay of pyrophosphate release. The note with it: 5 mM ATP, 10 mM MgCl2, 50 mM HEPES pH 7.5, 37 °C. The format is biochemical, Morganella morganii.

Results on two compounds are retold here after publication PMC11927176 (BMC Microbiology, 2025).

As for `CN[C@@H]1[C@H](O[C@H]2[C@H](O[C@H]3[C@H](O)[C@@H](O)[C@H](N=C(N)N)[C@@H](O)[C@@H]3N=C(N)N)O[C@@H](C)[C@]2(O)C=O)O[C@@H](CO)[C@H](O)[C@H]1O` [Streptomycin], the Km – broadly, the substrate concentration at which the rate is half of its maximum – was 2.67 µM.

With `CN[C@@H]1[C@H](O)[C@H](NC)[C@H]2O[C@@]3(O)C(=O)C[C@@H](C)O[C@H]3O[C@@H]2[C@H]1O` [Spectinomycin], the Km amounted to 8.17 µM.
